Measured values published in ChEMBL document CHEMBL1201862, “PubChem BioAssay data set” (2004).
Active and inactive are the calls of the source.

Assays:
Prothrombin = Prothrombin (Homo sapiens, UniProt P00734); assay: Thrombin 1536 HTS Dose Response Confirmation. [Related pubchem assays: 1046 (Thrombin 1536 HTS; hits were confirmed in this assay)]; assay type: functional
[1] = biological target: NAD-dependent protein deacylase sirtuin-5, mitochondrial (Homo sapiens, UniProt Q9NXA8); assay: sirtuin-5 deacylation blockers, concentration series – biochemical, fluorescence imaging, cherry-pick, set 5, dose response (AID 720591);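 also: desuccinylation of succinyl peptide AMC substrate read as fluorescence after trypsin release; potency of inhibitors that lower fluorescence and may act on trypsin instead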
[2] = viability loss in HeLa cells – cytotoxicity control for MgcRacGAP inhibitor project, dose response (AID 624300); assay type: functional
[3] = biological target: T1, Rac GTPase-activating protein 1 (Homo sapiens, UniProt Q9H0H5); assay: blockers of MgcRacGAP-driven Rac1 GTP hydrolysis – biochemical, ADP Hunter fluorescence, primary and confirmatory, confirmation (AID 624330); assay type: functional
T1 sequence (Q9H0H5 whole entry): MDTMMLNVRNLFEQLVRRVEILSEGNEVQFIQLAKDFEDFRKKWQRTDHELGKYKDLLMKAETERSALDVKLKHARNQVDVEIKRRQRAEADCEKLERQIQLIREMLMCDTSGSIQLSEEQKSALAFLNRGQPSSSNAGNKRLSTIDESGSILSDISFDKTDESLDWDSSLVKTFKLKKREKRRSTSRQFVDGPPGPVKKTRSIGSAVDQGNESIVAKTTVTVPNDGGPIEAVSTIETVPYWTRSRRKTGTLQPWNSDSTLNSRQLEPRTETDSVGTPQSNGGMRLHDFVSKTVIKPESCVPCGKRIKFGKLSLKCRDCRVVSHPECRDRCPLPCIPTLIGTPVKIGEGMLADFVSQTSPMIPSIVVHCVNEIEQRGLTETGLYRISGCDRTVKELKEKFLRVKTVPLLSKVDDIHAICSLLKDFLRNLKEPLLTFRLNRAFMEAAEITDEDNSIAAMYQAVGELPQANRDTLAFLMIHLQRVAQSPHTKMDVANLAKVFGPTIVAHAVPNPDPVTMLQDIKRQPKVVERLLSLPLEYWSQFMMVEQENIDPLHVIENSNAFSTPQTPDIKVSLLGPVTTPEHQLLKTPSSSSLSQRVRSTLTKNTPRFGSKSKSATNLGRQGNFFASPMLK

[4] = viability of uninfected HEp-2 cells – cell-based, HTS, cytotoxicity control for RSV inhibitor project, dose response (AID 2410); assay type: functional; details: human respiratory syncytial virus
Protein RecA = biological target: T2, Protein RecA (Mycobacterium tuberculosis, UniProt P9WHJ3); assay: Fluorescence Cell-Free Homogeneous Dose Retest to Identify Inhibitors of RecA-Intein Splicing Activity. [Related pubchem assays (depositor defined):AID2097, AID2223, AID489010, AID492950]; assay type: functional
T2 sequence (P9WHJ3 whole entry): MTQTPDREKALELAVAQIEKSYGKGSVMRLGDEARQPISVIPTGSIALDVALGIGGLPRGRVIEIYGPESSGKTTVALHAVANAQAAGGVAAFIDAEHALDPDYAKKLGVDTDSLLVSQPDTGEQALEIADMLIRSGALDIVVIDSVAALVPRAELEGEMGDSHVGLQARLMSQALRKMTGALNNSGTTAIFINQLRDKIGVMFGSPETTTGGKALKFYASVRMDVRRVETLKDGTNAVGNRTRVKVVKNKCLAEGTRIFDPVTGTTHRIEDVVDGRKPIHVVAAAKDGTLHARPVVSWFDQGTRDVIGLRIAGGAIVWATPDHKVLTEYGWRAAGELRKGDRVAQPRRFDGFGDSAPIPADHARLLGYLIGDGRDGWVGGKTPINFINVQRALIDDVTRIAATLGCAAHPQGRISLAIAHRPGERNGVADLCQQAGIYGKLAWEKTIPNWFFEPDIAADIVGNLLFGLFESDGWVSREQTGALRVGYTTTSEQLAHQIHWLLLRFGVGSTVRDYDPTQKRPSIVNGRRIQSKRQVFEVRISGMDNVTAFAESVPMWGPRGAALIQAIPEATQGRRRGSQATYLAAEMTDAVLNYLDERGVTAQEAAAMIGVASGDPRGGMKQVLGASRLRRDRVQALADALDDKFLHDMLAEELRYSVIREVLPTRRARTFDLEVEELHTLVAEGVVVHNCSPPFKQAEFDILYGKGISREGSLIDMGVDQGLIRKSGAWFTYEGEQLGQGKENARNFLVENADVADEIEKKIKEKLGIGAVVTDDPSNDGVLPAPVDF

[5] = biological target: T3, Neuropeptide Y receptor type 1 (Homo sapiens, UniProt P25929); assay: Fluorescence-based counterscreen for agonists of NPY-Y2: cell-based high-throughput dose response assay for agonists of NPY-Y1.; assay type: functional
T3 sequence (P25929 whole entry): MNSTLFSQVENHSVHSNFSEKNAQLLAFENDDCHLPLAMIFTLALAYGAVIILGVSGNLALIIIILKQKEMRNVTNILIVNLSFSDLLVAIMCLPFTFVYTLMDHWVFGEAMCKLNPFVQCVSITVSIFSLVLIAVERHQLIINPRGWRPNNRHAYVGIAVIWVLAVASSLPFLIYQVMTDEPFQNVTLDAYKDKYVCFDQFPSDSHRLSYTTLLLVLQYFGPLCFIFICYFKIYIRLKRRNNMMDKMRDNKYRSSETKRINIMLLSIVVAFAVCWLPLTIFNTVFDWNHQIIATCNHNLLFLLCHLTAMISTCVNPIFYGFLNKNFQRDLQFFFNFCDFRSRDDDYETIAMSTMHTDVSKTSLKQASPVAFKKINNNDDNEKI

[6] = biological target: T4, Replicative DNA helicase DnaB (Mycobacterium tuberculosis, UniProt P9WMR3); assay: DnaB intein splicing inhibitors, dose response, biochemical, cell-free fluorescence (AID 449749); assay type: functional
T4 sequence (P9WMR3 whole entry): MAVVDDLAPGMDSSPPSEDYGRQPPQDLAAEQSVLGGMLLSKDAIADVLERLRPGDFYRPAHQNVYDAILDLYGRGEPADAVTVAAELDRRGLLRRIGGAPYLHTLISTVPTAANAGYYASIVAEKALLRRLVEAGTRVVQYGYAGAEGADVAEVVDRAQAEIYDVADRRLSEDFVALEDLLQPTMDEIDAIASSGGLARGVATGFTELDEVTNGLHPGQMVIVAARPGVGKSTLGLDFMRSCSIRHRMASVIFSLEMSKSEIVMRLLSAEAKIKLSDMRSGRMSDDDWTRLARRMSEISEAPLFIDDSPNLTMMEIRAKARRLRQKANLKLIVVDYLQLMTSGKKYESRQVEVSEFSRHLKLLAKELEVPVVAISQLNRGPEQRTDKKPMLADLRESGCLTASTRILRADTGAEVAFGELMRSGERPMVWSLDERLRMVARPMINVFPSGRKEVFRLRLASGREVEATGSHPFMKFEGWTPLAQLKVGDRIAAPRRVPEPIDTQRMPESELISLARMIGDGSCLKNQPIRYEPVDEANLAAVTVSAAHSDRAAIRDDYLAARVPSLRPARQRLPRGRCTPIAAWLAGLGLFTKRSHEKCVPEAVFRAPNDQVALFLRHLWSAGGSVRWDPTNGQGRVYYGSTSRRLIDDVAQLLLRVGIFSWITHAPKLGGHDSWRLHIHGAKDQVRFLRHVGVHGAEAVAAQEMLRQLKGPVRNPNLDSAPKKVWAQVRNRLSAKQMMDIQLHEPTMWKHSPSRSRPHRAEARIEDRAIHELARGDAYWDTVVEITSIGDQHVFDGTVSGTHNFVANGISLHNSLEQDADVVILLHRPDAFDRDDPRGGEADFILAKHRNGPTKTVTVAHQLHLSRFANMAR

Streptokinase A = biological target: T5, Streptokinase A (Streptococcus pyogenes serotype M1, UniProt P10520); assay: viability-normalized secreted streptokinase activity reduction – plasminogen activation absorbance, OD405, dose response (AID 1914); assay type: functional, Streptococcus pyogenes M1 GAS;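 also: secreted streptokinase activity via plasminogen activation per viability signal from cell pellet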
T5 sequence (P10520 whole entry): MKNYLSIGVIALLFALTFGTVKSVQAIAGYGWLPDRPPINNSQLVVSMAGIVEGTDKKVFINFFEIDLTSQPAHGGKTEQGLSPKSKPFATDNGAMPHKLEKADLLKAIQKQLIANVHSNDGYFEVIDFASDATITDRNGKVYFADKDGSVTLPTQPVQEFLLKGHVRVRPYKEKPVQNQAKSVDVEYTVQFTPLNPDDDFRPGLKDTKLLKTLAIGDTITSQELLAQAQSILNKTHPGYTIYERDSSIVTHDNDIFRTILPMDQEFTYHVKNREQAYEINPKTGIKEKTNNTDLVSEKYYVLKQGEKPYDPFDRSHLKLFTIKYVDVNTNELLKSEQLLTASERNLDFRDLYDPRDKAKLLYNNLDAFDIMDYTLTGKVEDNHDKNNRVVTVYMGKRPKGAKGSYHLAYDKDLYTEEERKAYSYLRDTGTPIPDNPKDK

[7] = biological target: T6, Neuropeptide Y receptor type 2 (Homo sapiens, UniProt P49146); assay: Fluorescence-based cell-based high-throughput dose response assay for agonists of NPY-Y2. [Related pubchem assays: 1703 (Screening assay (CNGC inhibitors).), 1359 (Screening assay (NPY-Y2 potentiators or agonists).), 1304 (Screening assay (NPY-Y1 potentiators or agonists).), 1710 (Screening assay (NPY-Y2 agonists).), 1791 (Summary AID.)]; assay type: functional
T6 sequence (P49146 whole entry): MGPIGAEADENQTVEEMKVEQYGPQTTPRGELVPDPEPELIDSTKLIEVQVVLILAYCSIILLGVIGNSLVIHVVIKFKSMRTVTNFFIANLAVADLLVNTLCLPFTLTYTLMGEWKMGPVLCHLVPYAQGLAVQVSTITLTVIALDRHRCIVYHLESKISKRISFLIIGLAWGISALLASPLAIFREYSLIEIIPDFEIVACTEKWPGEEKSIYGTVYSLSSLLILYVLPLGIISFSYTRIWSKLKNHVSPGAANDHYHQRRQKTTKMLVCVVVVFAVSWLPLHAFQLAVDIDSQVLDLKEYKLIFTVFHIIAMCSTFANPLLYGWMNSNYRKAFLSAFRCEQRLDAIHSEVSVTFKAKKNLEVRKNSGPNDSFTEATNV

[8] = tested on: Streptococcus sp. 'group A'; assay: Streptococcus pyogenes SK(-)GAS viability under kanamycin – luminescence, BacTiterGlo, confirmation, counter-screen for streptokinase expression inhibitor project, dose response (AID 1900); assay type: functional, organism-based
HEK293 = assay: Fluorescence-based counterscreen for potentiators or agonists of NPY-Y2: cell-based high-throughput dose response assay to identify inhibitors of cyclic nucleotide gated ion channel (CNGC) activity. In this assay, the parental HEK293 cell line transfected with a cyclic-nucleotide gated ion channel (CNGC)-based cAMP sensor is used to measure inhibition of isoproterenol-induced CNGC activity by test compound.; assay type: functional; details: Homo sapiens;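 also: stimulus is 1 µM isoproterenol at EC100 plus PDE inhibitor Ro 20-1724 at 25 µM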
Streptococcus = assay: GAS UMAA2166 growth inhibition – luminescence, BacTiterGlo, counter-screen for streptokinase expression inhibitor project, dose response (AID 1915); assay type: functional, organism-based;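 also: potency for reduction of bacterial viability or growth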
[9] = growth inhibition of PfATP4-mutant resistant parasites – NITD609-resistant line, SYBR Green, dry powder, dose response (AID 1159571); assay type: functional, cell-based;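 also: parasites synchronized at ring stage by sorbitol before testing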
[10] = growth inhibition of yeast DHODH-expressing 3D7 parasites – SYBR Green, dry powder samples, dose response (AID 1159570); assay type: functional, cell-based;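 also: parasite growth measured after 72 hours of compound exposure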
[11] = P. falciparum Dd2 growth inhibitors, dose response, SYBR Green, cherry-picked samples (AID 1159567); assay type: functional, cell-based
[12] = Dd2 malaria parasite growth inhibition potency – SYBR Green, dry powder samples, dose response (AID 1159566); assay type: functional, cell-based;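 also: potency for growth inhibition with lower SYBR green DNA signal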

NAD-dependent protein deacylase sirtuin-5, mitochondrial, sequence (Q9NXA8 whole entry): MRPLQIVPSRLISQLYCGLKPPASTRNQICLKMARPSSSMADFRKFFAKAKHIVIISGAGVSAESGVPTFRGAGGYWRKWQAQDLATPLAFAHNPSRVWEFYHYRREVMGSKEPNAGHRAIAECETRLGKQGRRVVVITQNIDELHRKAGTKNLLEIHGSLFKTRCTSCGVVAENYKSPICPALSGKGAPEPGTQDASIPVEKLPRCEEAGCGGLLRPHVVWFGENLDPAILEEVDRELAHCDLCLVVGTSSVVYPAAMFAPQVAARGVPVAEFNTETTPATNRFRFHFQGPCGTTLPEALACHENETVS

With `Cc1ccc(C)c(NC(=O)C2Cc3ccccc3CN2C(=O)OCc2ccccc2)c1` (stereo unspecified) the IC50 (Prothrombin) was > 50 µM (not active).
For `CCN(CC)c1ccc(S(=O)(=O)N2CCOCC2)cc1NC(=O)CN1CCN(Cc2ccccc2)CC1`, the AC50 [1] was 18.1 µM (active), the CC50 [2] was 100 µM (active) and the IC50 [3] was 84.5 µM (active).
For `O=C1c2ccccc2C(=O)N1CCCCN(C(=O)c1ccco1)c1ccc(Cl)cc1`, the IC50 (cells) was 11.8 µM (active).
With `Nc1ccc(Br)c[n+]1Cc1cccc2cccnc12` the CC50 [4] was > 50 µM (active) and the IC50 (cells) was 46.7 µM (active).
In the case of `CC(=O)C(=NNc1cccc(Cl)c1)Nc1ccc(Cl)cc1Cl`, the EC50 (Protein RecA) is reported as 49 µM (active), the EC50 [5] is reported as 12.6 µM (not active) and the AC50 [6] is reported as 379 µM (active). The EC50 (Streptokinase A) was 2.72 µM (active) and the EC50 [7] was 21.2 µM (not active).
In the case of `CC(=O)C(=Nc1ccc(Cl)cc1Cl)NNc1cccc(Cl)c1`, the EC50 [8] is reported as 3.14 µM (active), the EC50 (HEK293) is reported as > 35.4 µM (not active) and the EC50 (Streptococcus) is reported as > 150 µM (not active).
For `CCOC(=O)c1ccc(NC(=O)NC2CCN(CC(=O)NCc3ccc4c(c3)OCO4)CC2)cc1`, the IC50 (Prothrombin) was > 50 µM (not active).
With `C/C=C/c1ccccc1[C@H]1[C@@H](C#N)N(C(=O)NC2CCCC2)[C@H]1CO` the AC50 [9] was 1.58 µM (active), the AC50 [10] was 33.8 µM (active) and the AC50 [11] was 1.85 µM (active). For the same compound, the AC50 [12] was 0.952 µM (active).
In the case of `Cc1ccc(C(=O)n2nc(-c3ccco3)nc2N)cc1`, the IC50 (Prothrombin) is reported as 0.741 µM (active).
